For orientation: EC50 means the concentration that produces a half-maximal response.

Like-named read-outs stand apart in the source and are kept apart here. Where a SMILES comes first, the peptide text is derived from it. [ ]: non-standard residue; d: D form. Aib = CC(C)(N)C(=O)O Some results are limits rather than exact numbers.

This note sets out measurements from publication PMC7190724, “Improved GPCR ligands from nanobody tethering” (Nature Communications, 2020).

Assay [1] deals with T1, PTHR1_6E (Homo sapiens, UniProt Q03431).
T1 sequence (Q03431 106-593 limits assumed): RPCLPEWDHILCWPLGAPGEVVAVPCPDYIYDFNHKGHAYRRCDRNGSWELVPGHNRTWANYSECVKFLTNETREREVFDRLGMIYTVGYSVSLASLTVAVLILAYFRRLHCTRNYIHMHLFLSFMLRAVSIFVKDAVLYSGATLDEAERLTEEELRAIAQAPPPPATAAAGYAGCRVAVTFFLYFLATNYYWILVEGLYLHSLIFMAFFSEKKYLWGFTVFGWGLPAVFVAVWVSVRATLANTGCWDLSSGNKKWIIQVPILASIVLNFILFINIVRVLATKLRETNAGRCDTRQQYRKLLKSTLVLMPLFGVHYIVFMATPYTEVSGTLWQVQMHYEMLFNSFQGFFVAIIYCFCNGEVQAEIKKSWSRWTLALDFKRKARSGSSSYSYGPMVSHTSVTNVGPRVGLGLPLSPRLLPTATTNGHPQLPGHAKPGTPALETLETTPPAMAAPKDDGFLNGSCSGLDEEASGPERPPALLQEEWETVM
The experiment in a line: cAMP response (GloSensor luminescence), HEK293 stably expressing PTHR1_6E. It counts as cell-based. The settings on record: peak GloSensor luminescence; mean ± SD, ≥3 independent experiments; read-out: EC50, cAMP induction. The method, then: (§1) A HEK293 cell line stably expressing β-Arrestin2-YFP (GBR24) was constructed similarly. PTHR1_6E was produced using the Q5 Site-directed mutagenesis kit (NEB) and used to prepare a stably transfected HEK293-derived cell line. Annotated sequence data for all PTHR1 constructs are found in Supplementary Fig. 19. Aligned sequences of VHHs used in this study are shown in Supplementary Fig. 20.
(§2) These assays were performed as previously described. […] Confluent monolayers of cells were pre-incubated with CO2 independent medium containing D-luciferin (0.5 mM) at 37 °C until a stable baseline level of luminescence was established (20 min). Varying concentrations of ligands were then added, and the time course of luminescence response was recorded using BioTek plate reader.
(§3) Data were processed using Microsoft Excel and GraphPad Prism 6. Data from cAMP dose–response assays were analyzed using a sigmoidal dose–response model with variable slope. Data sets were statistically compared by using Student’s t test (two-tailed) assuming unequal variances for the two sets.

Assay [2] has as its target T2, hPTHR1 (Homo sapiens, UniProt Q03431).
T2 construct: expressed in transfected cells; host or cells: HEK293 (clone GP2.3) with GloSensor cAMP reporter
T2 sequence (Q03431 27-593): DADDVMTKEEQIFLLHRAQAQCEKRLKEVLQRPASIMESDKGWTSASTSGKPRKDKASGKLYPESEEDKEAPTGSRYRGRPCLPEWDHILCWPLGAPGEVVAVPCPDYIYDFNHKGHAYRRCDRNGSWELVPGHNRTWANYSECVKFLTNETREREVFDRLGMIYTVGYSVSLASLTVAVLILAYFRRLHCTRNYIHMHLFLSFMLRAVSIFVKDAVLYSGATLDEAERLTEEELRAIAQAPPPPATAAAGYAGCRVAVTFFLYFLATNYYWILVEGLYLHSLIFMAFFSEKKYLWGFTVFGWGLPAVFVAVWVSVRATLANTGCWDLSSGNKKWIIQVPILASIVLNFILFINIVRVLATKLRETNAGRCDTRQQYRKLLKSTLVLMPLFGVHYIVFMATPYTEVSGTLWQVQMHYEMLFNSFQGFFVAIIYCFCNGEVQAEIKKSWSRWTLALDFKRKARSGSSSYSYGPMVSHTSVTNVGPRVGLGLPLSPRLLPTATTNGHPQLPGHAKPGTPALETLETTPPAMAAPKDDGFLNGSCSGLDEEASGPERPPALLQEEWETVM
The experiment in a line: cAMP response (GloSensor luminescence), HEK293 stably expressing human PTHR1 (GP2.3). Type of assay: cell-based. The settings on record: peak GloSensor luminescence 12–16 min after ligand; mean ± SD, ≥3 independent experiments; highest conc. 100 nM conjugates, 10,000 nM peptides; read-out: EC50, cAMP induction. As for the experimental part:
as §1, §2, §3

In assay [3] the target is T3, PTHR1YFPΔECD (Homo sapiens, UniProt Q03431).
T3 construct: expressed in transfected cells; host or cells: HEK293 (clone GD5Y) with GloSensor cAMP reporter
T3 sequence (Q03431 with tags, fused parts or gaps limits assumed): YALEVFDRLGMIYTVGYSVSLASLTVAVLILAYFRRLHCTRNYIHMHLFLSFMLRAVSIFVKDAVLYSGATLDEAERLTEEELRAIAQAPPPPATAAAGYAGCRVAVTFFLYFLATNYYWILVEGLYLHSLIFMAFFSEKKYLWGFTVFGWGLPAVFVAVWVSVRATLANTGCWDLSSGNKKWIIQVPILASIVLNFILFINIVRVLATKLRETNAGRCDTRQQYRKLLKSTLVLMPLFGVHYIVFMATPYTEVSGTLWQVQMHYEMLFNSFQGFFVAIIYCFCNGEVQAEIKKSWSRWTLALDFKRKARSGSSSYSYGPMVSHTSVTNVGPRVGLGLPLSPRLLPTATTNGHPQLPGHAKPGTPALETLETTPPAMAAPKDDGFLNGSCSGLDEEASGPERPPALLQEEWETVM
Put plainly: cAMP response (GloSensor luminescence), HEK293 stably expressing PTHR1YFPΔECD (GD5Y). It counts as cell-based. As to conditions: peak GloSensor luminescence; mean ± SD, ≥3 independent experiments; read-out: EC50, cAMP induction. The method, then:
as §1, §2, §3

The target of assay [4] is T4, PTHR1GFP (Homo sapiens, UniProt Q03431).
T4 sequence (Q03431 27-593): T2 sequence (Q03431 27-593)
Put plainly: cAMP response (GloSensor luminescence), HEK293 stably expressing PTHR1GFP (GPG10). It counts as cell-based. As for the experimental part: (§4) These assays were performed as previously described. Briefly, HEK-293-derived cell lines that stably express the Glosensor cAMP reporter (Promega Corp.)[30] and PTHR1, a PTHR1 variant, or PTHR2 were seeded into white sided 96-well plates (50,000 cells/well) and grown to confluency. Confluent monolayers of cells were pre-incubated with CO2 independent medium containing D-luciferin (0.5 mM) at 37 °C until a stable baseline level of luminescence was established (20 min). Varying concentrations of ligands were then added, and the time course of luminescence response was recorded using BioTek plate reader. The maximal luminescence response (observed 12–16 min after ligand addition) was used to construct dose-response data sets (Table 1, Supplementary Fig. 6).
as §3
Supplementary Figure 1. […]
GFP variant known as pHluorin2 engrafted into the receptor(ref. 19, main text). c) HEK293 cells stably expressing PTHR1-GFP were treated with varied doses of the indicated peptides or conjugates and activation was assessed by measuring luminescence from a cAMP-activated luciferase variant. Values listed represent EC50 values (mean ± SD). Each value comes from ≥ 3 independent experiments. Further details, including the number of replicates for each measurement and the normalized maximal responses induced, are reported in Supplementary Table 1. […]
than 5% of the maximal response induced for that cell line.
Peptide or conjugate PTHR1GFP

The target of assay [5] is T5, hPTHR2 (Homo sapiens, UniProt P49190).
T5 construct: expressed in transfected cells
Put plainly: cAMP response (GloSensor luminescence), HEK293 stably expressing hPTHR2. It counts as cell-based. The settings on record: peak GloSensor luminescence; mean ± SD, n = 3-4; read-out: EC50, cAMP induction. The method, then:
as §4, §3

Assay [6] concerns the target T4, PTHR1GFP. Put plainly: Flow cytometry binding of VHH-Alexafluor647 to HEK293 expressing PTHR1GFP. The settings on record: 100 nM VHH-Alexafluor647, on ice. The method, then: (§5) Suspensions of cells in PBS were stained for 1 h on ice in the presence of indicated concentrations of VHH probes functionalized with Alexafluor647. Cells were pelleted by centrifugation and washed with PBS prior to analysis by flow cytometry (BD Accuri C6). To select intact cells gating was performed on forward scatter/side scatter profiles for analysis (see Supplementary Fig. 4 for an example of the gating strategy). Data were analyzed using FlowJo version 7.6. The median fluorescent intensity (MFI) of stained cells was used to generate VHH binding dose response curves (Supplementary Fig. 4).
Supplementary Figure 1. […] HEK293 cell lines in suspension were incubated on ice with 100 nM VHH sortagged with Alexafluor647, pelleted by centrifugation, washed and analyzed. […]
PTHR1GFP. This weak staining is likely related to the inability of VHHGFP to tightly bind the pH-sensitive GFP variant known as pHluorin2 engrafted into the receptor(ref. 19, main text). c) HEK293 cells stably expressing PTHR1-GFP were treated with varied doses of the indicated peptides or conjugates and activation was assessed by measuring luminescence from a cAMP-activated luciferase variant. […]
Supplementary Figure 4. […] Cells were centrifuged, washed, and analyzed by flow cytometry via gating of intact cells (live gate) based on forward scatter/side scatter profiles (panel a). […]
(In general: In flow cytometry, cells or beads pass a laser one at a time.)

In assay [7] the target is T3, PTHR1YFPΔECD. The experiment in a line: Flow cytometry binding of VHH-Alexafluor647 to HEK293 expressing PTHR1YFPΔECD. The method, then:
as §5
Supplementary Figure 4. Assessment of VHH binding to PTHR1 variants by flow cytometry. Cells dislodged from tissue culture plates using trypsinization were incubated with varied concentrations of VHHs sortagged with AlexaFluor647 on ice for 1 h. Cells were centrifuged, washed, and analyzed by flow cytometry via gating of intact cells (live gate) based on forward scatter/side scatter profiles (panel a). (b) Data points represent median fluorescent intensity values ( individual data points shown, n = 2 independent replicates per condition). Connecting curves are the result of fitting a sigmoidal dose - response model to the data points. Precise estimates for VHH PTHR binding cannot be provided since the […]
(1 picture or pasted object on this page, not shown here)

T5 sequence (P49190 25-550): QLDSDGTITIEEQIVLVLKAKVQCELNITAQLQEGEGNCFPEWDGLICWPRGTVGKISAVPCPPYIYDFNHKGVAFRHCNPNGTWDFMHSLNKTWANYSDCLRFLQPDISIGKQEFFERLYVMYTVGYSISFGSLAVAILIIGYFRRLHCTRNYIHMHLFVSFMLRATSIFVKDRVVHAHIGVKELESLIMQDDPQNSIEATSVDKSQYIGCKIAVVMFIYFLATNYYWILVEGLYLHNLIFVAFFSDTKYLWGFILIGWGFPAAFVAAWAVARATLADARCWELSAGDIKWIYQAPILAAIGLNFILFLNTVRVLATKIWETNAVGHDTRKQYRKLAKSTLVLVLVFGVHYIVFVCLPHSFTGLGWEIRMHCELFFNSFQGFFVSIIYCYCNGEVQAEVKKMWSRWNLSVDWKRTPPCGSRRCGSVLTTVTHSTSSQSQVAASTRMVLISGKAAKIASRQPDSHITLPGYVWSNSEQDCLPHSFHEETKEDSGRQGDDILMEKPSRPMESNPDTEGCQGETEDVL

Turning to `CC[C@H](C)[C@H](NC(=O)[C@H](CCC(=O)O)NC(=O)C(C)(C)NC(=O)[C@@H](NC(=O)[C@H](C)N)C(C)C)C(=O)N[C@@H](CCC(N)=O)C(=O)N[C@@H](CC(C)C)C(=O)N[C@@H](CCSC)C(=O)N[C@@H](Cc1c[nH]cn1)C(=O)N[C@@H](CCC(N)=O)C(=O)N[C@@H](CS)C(N)=O` [PTH(1-10)] (H-AV[Aib]EIQLMHQC-NH2), the EC50 in assay [1] worked out at 5080 nM; in assay [2], 3120 nM; in assay [3] it was 3840 nM; in assay [4] (peak GloSensor luminescence, mean ± SD, ≥3 independent experiments, read-out: EC50, cAMP induction) it was 2550 ± 653 nM.
With `CC[C@H](C)[C@H](NC(=O)[C@H](CCC(=O)O)NC(=O)C(C)(C)NC(=O)[C@@H](NC(=O)[C@H](C)N)C(C)C)C(=O)N[C@@H](CCC(N)=O)C(=O)N[C@@H](CC(C)C)C(=O)N[C@@H](CCSC)C(=O)N[C@@H](Cc1c[nH]cn1)C(=O)N[C@@H](CCC(N)=O)C(=O)N[C@@H](CCCNC(=N)N)C(=O)N[C@@H](C)C(=O)N[C@@H](CCCCN)C(=O)N[C@@H](Cc1c[nH]c2ccccc12)C(=O)N[C@@H](CS)C(N)=O` [PTH(1-14)] (H-AV[Aib]EIQLMHQRAKWC-NH2), the EC50 in assay [1] amounted to 3.4 nM; in assay [2], 4.3 nM; in assay [3], 1.1 nM; in assay [4] it was 2.3 ± 1.2 nM; in assay [5] it was 924 ± 328 nM.
Consider “VHHGFP: nanobody recognizing green or yellow fluorescent proteins (named VHH-enhancer)”, for which the “staining of cells” value in assay [6] is “only weakly stained”; in assay [7] (100 nM VHH-Alexafluor647, on ice), “stained”. The half-maximal staining concentration in assay [7] (flow cytometry MFI, VHH-Alexafluor647, 1 h on ice) was less than 10 nM.
